The values that follow come from PubChem BioAssay (NCI).

The test system of assay [1] is NCI-H23 lung. Briefly: NCI tumour cell line growth inhibition, 48 h.
Assay [2] relates to MCF7 breast. Briefly: NCI tumour cell line growth inhibition, 48 h.

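48-hour exposure; five concentrations; linearly interpolated endpoints. GI50 = concentration required for 50% inhibition of growth. The concentration for full growth arrest is given as TGI.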 A value given as a limit tells only on which side of the number the result lay.

In assay [1], `O=C(NN1C(=O)C(Cl)C1c1ccc([N+](=O)[O-])cc1)c1ccccc1O` (stereo not drawn) returned a TGI of more than 100 µM.
As to `CN(C)S(=O)(=O)c1cccc(-c2nc3sc4c(c3c(=O)[nH]2)CCCC4)c1`, in assay [2], the GI50 was more than 100 µM and the TGI is more than 100 µM.
